In series [1] the test system is Staphylococcus aureus 209P. Kind of series: MIC, serial dilution on Mueller Hinton agar. Type of series: cell-based.
Series [2] deals with Staphylococcus aureus Ap01. Kind of series: MIC, serial dilution on Mueller Hinton agar. Type of series: cell-based. The settings on record: Staphylococcus aureus Ap01, resistance mechanism ANT(4'); Mueller Hinton agar, 37°C, 18 hours; read-out: MIC.
A further series relates to Bacillus subtilis PCI219. As to the kind of experiment: MIC, serial dilution on Mueller Hinton agar. It counts as cell-based.
Series [3] has as its system Corynebacterium bovis 1810. As to the kind of experiment: MIC, serial dilution on Mueller Hinton agar. Type of series: cell-based. The settings on record: Corynebacterium bovis 1810; Mueller Hinton agar, 37°C, 18 hours; read-out: MIC.
Another series relates to Escherichia coli K-12. Kind of series: MIC, serial dilution on Mueller Hinton agar. Type of series: cell-based.
Another series relates to Escherichia coli K-12 R5. Kind of series: MIC, serial dilution on Mueller Hinton agar. It counts as cell-based. The conditions noted are these: K12R5, 18 h.
In series [4] the test system is Escherichia coli K-12 ML 1629. As to the kind of experiment: MIC, serial dilution on Mueller Hinton agar. Type of series: cell-based. The conditions noted are these: K12ML1629, Escherichia coli K-12 ML 1629, resistance mechanism APH(3')-I, 37°C, 18 hours.
For series [5], the system named is Escherichia coli K-12 LA 290 R55. Kind of series: MIC, serial dilution on Mueller Hinton agar. Type of series: cell-based. The settings on record: Escherichia coli, K12LA290R55, 18 h.
A further series concerns Escherichia coli JR225. Kind of series: microbe, parasite or virus in culture. It counts as cell-based. The settings on record: Escherichia coli, JR225, 18 h.
The subject of series [6] is Escherichia coli JR66/W677. Kind of series: microbe, parasite or virus in culture. It counts as cell-based. The settings on record: JR66/W677, 18 h.
Another series relates to Mycobacterium 607. As to the kind of experiment: MIC, serial dilution on Mueller Hinton agar. Type of series: cell-based. The settings on record: Mycobacterium 607; Mueller Hinton agar, 37°C, incubated for 40 hours; read-out: MIC.
Series [7] has as its system Klebsiella pneumoniae 22#3038. Kind of series: MIC, serial dilution on Mueller Hinton agar. Type of series: cell-based. The settings on record: Klebsiella pneumoniae 22#3038, resistance mechanism APH(3')-II, ANT(2"), 37°C, 18 hours. The source says: The antibacterial spectra so determined of the new compounds No. 1 to No. 13 (each in the form of the free base) of this invention are as shown in Table 1 below.

Another series relates to Proteus rettgeri GN 311. As to the kind of experiment: MIC, serial dilution on Mueller Hinton agar. The settings on record: Providencia rettgeri. Type of series: cell-based.
The test system of the next series is Serratia marcescens. As to the kind of experiment: MIC, serial dilution on Mueller Hinton agar. Type of series: cell-based.
The subject of the next series is Providencia sp. Pv 16. Kind of series: MIC, serial dilution on Mueller Hinton agar. It counts as cell-based.
The subject of series [8] is Pseudomonas aeruginosa A3. As to the kind of experiment: MIC, serial dilution on Mueller Hinton agar. Type of series: cell-based.
The subject of series [9] is Pseudomonas aeruginosa GN 315. As to the kind of experiment: MIC, serial dilution on Mueller Hinton agar. The conditions noted are these: GN315; Pseudomonas aeruginosa GN 315, resistance mechanism AAC(6'); Mueller Hinton agar, 37°C, 18 hours; read-out: MIC. Type of series: cell-based.
A short description of a further series: in vivo. The conditions noted are these: mouse, iv.
The mark [10] stands for this setting: Staphylococcus aureus 209P, Mueller Hinton agar, 37°C, 18 hours, read-out: MIC.
Where [11] appears, read: Bacillus subtilis PCI219, Mueller Hinton agar, 37°C, 18 hours, read-out: MIC.
The mark [12] stands for this setting: K12, Escherichia coli K-12, Mueller Hinton agar, 37°C, 18 hours, read-out: MIC.
Where [13] appears, read: GN311, Proteus rettgeri GN 311, Mueller Hinton agar, 37°C, 18 hours, read-out: MIC.
Where [14] appears, read: Pseudomonas aeruginosa A3, Mueller Hinton agar, 37°C, 18 hours, read-out: MIC.
Setting [15] is: Mueller Hinton agar, 37°C, 18 hours, read-out: MIC.
The mark [16] stands for this setting: SP.PV16, Providencia sp. Pv 16, resistance mechanism AAC(2'), Mueller Hinton agar, 37°C, 18 hours, read-out: MIC.

The results in this text go back to EP0259014A2, “5-Deoxy-5-fluorokanamycin B derivatives and processes for the production thereof” (ZAIDAN HOJIN BISEIBUTSU KAGAKU KENKYU KAI, priority 1986, dated 1988).

In brackets after ≈: the same amount, converted by molar mass. Where two headings read alike, the source gives them in different places. Where only a bound is given, the exact number is not on record here.

In the case of `NC[C@@H]1CC[C@@H](N)[C@@H](O[C@H]2[C@H](F)[C@@H](O[C@H]3O[C@H](CO)[C@@H](O)[C@H](N)[C@H]3O)[C@H](NC(=O)[C@@H](O)CN)C[C@@H]2N)O1` [Compound No. 12, 1-N-(3-Amino-2-(S)-hydroxypropionyl)-5,3',4'-trideoxy-5-fluorokanamycin B], the MIC was determined as 0.39 mg/L (≈ 0.721 µM) in [1] (setting [10]); 0.78 mg/L (≈ 1.44 µM) in series [2]; 0.39 mg/L (≈ 0.721 µM) in the series with Bacillus subtilis PCI219 (setting [11]); 0.2 mg/L (≈ 0.37 µM) in series [3]; 0.2 mg/L (≈ 0.37 µM) with Escherichia coli K-12 (setting [12]); 50 mg/L (≈ 92.5 µM) with Escherichia coli K-12 R5. Besides, the MIC was 0.78 mg/L (≈ 1.44 µM) in series [4]; 1.56 mg/L (≈ 2.89 µM) in [5]; 0.39 mg/L (≈ 0.721 µM) against Escherichia coli JR225; 1.56 mg/L (≈ 2.89 µM) in series [6]; 0.78 mg/L (≈ 1.44 µM) with Mycobacterium 607; 1.56 mg/L (≈ 2.89 µM) in series [7]. The MIC with Proteus rettgeri GN 311 (setting [13]) was less than 0.2 mg/L; in the series with Serratia marcescens (18 h), 1.56 mg/L (≈ 2.89 µM); with Providencia sp. Pv 16 (Providencia, SP.PV16, 18 h), 1.56 mg/L (≈ 2.89 µM); in series [8] (setting [14]) it was 0.39 mg/L (≈ 0.721 µM); in series [9], 6.25 mg/L (≈ 11.6 µM).
Consider `NCC[C@H](O)C(=O)N[C@@H]1C[C@H](N)[C@@H](O[C@H]2O[C@H](CN)CC[C@H]2N)[C@H](F)[C@H]1O[C@H]1O[C@H](CO)[C@@H](O)[C@H](N)[C@H]1O` [Compound No. 13, 1-N-(4-Amino-2-(S)-hydroxybutyryl)-5,3',4-trideoxy-5-fluorokanamycin B], for which the MIC in series [1] (setting [10]) is 0.39 mg/L (≈ 0.703 µM); in [2], 0.78 mg/L (≈ 1.41 µM); in the series with Bacillus subtilis PCI219 (setting [11]), 0.39 mg/L (≈ 0.703 µM); in [3] it was less than 0.2 mg/L; with Escherichia coli K-12 (setting [12]) it was 0.2 mg/L (≈ 0.361 µM); against Escherichia coli K-12 R5 it was 50 mg/L (≈ 90.2 µM). Besides, the MIC in series [4] is 0.39 mg/L (≈ 0.703 µM); in series [5], 0.78 mg/L (≈ 1.41 µM); in the series with Escherichia coli JR225 it was 0.2 mg/L (≈ 0.361 µM); in series [6], 0.78 mg/L (≈ 1.41 µM); in the series on Mycobacterium 607 it was 0.78 mg/L (≈ 1.41 µM); in series [7], 0.78 mg/L (≈ 1.41 µM). In addition, the MIC in the series on Proteus rettgeri GN 311 (setting [13]) is less than 0.2 mg/L; in the series on Serratia marcescens (setting [15]), 1.56 mg/L (≈ 2.81 µM); with Providencia sp. Pv 16 (setting [16]), 0.78 mg/L (≈ 1.41 µM); in series [8] (setting [14]) it was 0.39 mg/L (≈ 0.703 µM); in [9] it was 6.25 mg/L (≈ 11.3 µM). Besides, the LD50 in the series “in vivo” was found to be 150 mg/kg.
In the case of `NC[C@H]1O[C@H](O[C@H]2[C@H](O)[C@@H](O[C@H]3O[C@H](CO)[C@@H](O)[C@H](N)[C@H]3O)[C@H](N)C[C@@H]2N)[C@H](N)[C@@H](O)[C@@H]1O` [KMB, kanamycin B], the MIC in [1] (Staphylococcus aureus, 209P, 18 h) was 0.39 mg/L (≈ 0.807 µM); in [2], 25 mg/L (≈ 51.7 µM); with Bacillus subtilis PCI219 (Bacillus subtilis, PCI219, 18 h), less than 0.2 mg/L; in series [3], 0.78 mg/L (≈ 1.61 µM); against Escherichia coli K-12 (Escherichia coli, K12, 18 h), 0.39 mg/L (≈ 0.807 µM); in the series on Escherichia coli K-12 R5 it was 50 mg/L (≈ 103 µM). Further, the MIC is greater than 100 mg/L in [4]; 12.5 mg/L (≈ 25.9 µM) in series [5]; 12.5 mg/L (≈ 25.9 µM) with Escherichia coli JR225; greater than 100 mg/L in series [6]; 1.56 mg/L (≈ 3.23 µM) with Mycobacterium 607; greater than 100 mg/L in series [7]. Further, the MIC in the series with Proteus rettgeri GN 311 (GN311, 18 h) was 0.2 mg/L (≈ 0.414 µM); in the series with Serratia marcescens (setting [15]), 3.12 mg/L (≈ 6.45 µM); in the series with Providencia sp. Pv 16 (Providencia, SP.PV16, 18 h), 12.5 mg/L (≈ 25.9 µM); in [8] (Pseudomonas aeruginosa, A3, 18 h), 1.56 mg/L (≈ 3.23 µM); in series [9], 50 mg/L (≈ 103 µM). Moreover, in “in vivo”, the LD50 was determined as 110 mg/kg.
Turning to `NC[C@H]1O[C@H](O[C@H]2[C@H](O)[C@@H](O[C@H]3O[C@H](CO)[C@@H](O)[C@H](N)[C@H]3O)[C@H](N)C[C@@H]2N)[C@H](N)C[C@@H]1O` [TMB, 3'-deoxykanamycin B, reference compound], the MIC in [1] (setting [10]) is less than 0.2 mg/L; in series [2] it was 1.56 mg/L (≈ 3.34 µM); in the series on Bacillus subtilis PCI219 (setting [11]), less than 0.2 mg/L; in [3] it was 6.25 mg/L (≈ 13.4 µM); in the series with Escherichia coli K-12 (setting [12]), 0.39 mg/L (≈ 0.834 µM); in the series on Escherichia coli K-12 R5, 100 mg/L (≈ 214 µM). Further, the MIC in series [5] was found to be 25 mg/L (≈ 53.5 µM); in the series on Escherichia coli JR225, 25 mg/L (≈ 53.5 µM); in series [6], 12.5 mg/L (≈ 26.7 µM); in [7], 12.5 mg/L (≈ 26.7 µM); in the series on Proteus rettgeri GN 311 (setting [13]), 0.2 mg/L (≈ 0.428 µM); against Serratia marcescens (18 h), 12.5 mg/L (≈ 26.7 µM). The MIC was 6.25 mg/L (≈ 13.4 µM) with Providencia sp. Pv 16 (setting [16]), less than 0.2 mg/L in series [8] (setting [14]) and 50 mg/L (≈ 107 µM) in series [9]. The compound also yielded an LD50 in “in vivo” of 80 mg/kg.
Compound `NCC[C@H](O)C(=O)N[C@@H]1C[C@H](N)[C@@H](O[C@H]2O[C@H](CN)CC[C@H]2N)[C@H](O)[C@H]1O[C@H]1O[C@H](CO)[C@@H](O)[C@H](N)[C@H]1O` [habekacin, 1-N-(4-amino-2-(S)-hydroxybutyryl)-3',4'-dideoxykanamycin B, reference compound] registered an LD50 in the series “in vivo” of 90 mg/kg.

As a reminder, the LD50 is the dose expected to kill half of the subjects tested. High values mean a less toxic substance, low ones a more toxic substance.
